Measured values as given in ChEMBL document CHEMBL5465560, “Selectivity Literature for EUbOPEN Chemogenomic Library” (2024).

How the values were obtained:
[1] = biological target: Serine/threonine-protein kinase SIK3 (Homo sapiens) (UniProt Q9Y2K2); experiment: Selectivity interaction (KinomeScan (DiscoverX)) EUB0001049a SIK3; details: at 1 µM
[2] = biological target: Phosphatidylinositol 4-phosphate 5-kinase type-1 alpha (Homo sapiens) (UniProt Q99755); experiment: Selectivity interaction (KinomeScan (DiscoverX)) EUB0001049a PIP5K1A; details: at 1 µM
[3] = biological target: Ribosomal protein S6 kinase beta-1 (Homo sapiens, UniProt P23443); experiment: Selectivity interaction (Enyzmatic assay) EUB0000601a RPS6KB1
Sequence of Ribosomal protein S6 kinase beta-1 (P23443 whole entry): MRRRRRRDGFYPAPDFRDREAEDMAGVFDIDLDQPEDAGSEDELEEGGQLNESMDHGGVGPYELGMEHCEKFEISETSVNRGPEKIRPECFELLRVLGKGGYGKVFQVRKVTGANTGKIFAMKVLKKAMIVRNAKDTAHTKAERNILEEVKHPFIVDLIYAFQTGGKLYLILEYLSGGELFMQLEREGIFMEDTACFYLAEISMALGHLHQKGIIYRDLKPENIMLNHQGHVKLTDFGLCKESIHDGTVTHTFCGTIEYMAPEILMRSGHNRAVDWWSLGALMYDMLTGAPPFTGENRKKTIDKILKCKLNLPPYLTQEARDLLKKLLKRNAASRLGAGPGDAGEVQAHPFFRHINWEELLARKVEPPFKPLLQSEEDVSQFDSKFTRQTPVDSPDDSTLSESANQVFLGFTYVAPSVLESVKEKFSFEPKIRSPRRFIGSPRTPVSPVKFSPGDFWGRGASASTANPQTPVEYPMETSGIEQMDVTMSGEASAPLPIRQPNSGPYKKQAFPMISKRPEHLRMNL

[4] = biological target: Transcription intermediary factor 1-alpha (Homo sapiens) (UniProt O15164); experiment: Selectivity interaction (Bromodomain panel (DSF asssay)) EUB0000270b TRIM24
[5] = biological target: Serine/threonine-protein kinase 38 (Homo sapiens) (UniProt Q15208); experiment: Selectivity interaction (KinomeScan (DiscoverX)) EUB0000595a STK38; details: at 10 µM
Sequence of Serine/threonine-protein kinase 38 (Homo sapiens) (Q15208 2-465 limits assumed): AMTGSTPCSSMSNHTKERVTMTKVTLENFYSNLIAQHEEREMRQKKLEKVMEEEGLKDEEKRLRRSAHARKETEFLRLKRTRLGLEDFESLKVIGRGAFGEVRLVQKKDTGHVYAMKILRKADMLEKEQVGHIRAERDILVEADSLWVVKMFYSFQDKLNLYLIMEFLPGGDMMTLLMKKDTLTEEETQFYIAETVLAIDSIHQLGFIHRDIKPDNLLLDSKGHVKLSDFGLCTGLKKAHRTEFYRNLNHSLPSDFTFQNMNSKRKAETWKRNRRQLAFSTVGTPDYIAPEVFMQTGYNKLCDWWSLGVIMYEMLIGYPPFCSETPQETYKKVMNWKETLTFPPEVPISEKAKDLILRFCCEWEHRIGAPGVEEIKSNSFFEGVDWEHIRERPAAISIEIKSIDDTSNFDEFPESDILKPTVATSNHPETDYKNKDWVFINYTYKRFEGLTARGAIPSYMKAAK

[6] = biological target: Cyclin-dependent kinase 3 (Homo sapiens) (UniProt Q00526); experiment: Selectivity interaction (KinomeScan (DiscoverX)) EUB0000595a CDK3; details: at 10 µM
Sequence of Cyclin-dependent kinase 3 (Homo sapiens) (Q00526 whole entry, looked up): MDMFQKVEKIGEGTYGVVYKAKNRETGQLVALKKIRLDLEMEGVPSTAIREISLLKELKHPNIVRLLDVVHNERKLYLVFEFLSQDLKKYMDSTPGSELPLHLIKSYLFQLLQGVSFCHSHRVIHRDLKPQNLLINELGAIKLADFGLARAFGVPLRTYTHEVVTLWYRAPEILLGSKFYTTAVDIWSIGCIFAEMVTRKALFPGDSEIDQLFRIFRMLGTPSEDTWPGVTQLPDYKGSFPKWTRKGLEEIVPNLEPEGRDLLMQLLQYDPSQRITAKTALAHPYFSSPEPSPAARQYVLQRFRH

[7] = biological target: T1, Megakaryocyte-associated tyrosine-protein kinase (Homo sapiens) (UniProt P42679); experiment: Selectivity interaction (Ambit KINOMEscan and KiNATiv profiling in Jurkat cells) EUB0000090b MATK; format: cell-based; details: at 1 µM
T1 sequence (whole entry): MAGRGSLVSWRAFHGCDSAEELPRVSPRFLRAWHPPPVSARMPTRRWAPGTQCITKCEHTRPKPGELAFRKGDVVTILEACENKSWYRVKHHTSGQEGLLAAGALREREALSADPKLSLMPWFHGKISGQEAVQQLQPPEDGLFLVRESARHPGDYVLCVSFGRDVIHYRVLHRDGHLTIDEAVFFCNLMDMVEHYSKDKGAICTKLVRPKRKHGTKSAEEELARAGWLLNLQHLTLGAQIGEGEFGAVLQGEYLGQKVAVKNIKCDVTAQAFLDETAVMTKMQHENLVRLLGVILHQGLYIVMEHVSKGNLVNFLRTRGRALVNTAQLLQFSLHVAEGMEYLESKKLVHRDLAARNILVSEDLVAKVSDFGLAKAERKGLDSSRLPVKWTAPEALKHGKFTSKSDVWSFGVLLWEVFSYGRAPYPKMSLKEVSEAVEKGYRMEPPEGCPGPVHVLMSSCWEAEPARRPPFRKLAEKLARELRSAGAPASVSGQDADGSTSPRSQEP

[8] = biological target: Homeodomain-interacting protein kinase 2 (Homo sapiens, UniProt Q9H2X6); experiment: Selectivity interaction (Ambit KINOMEscan and KiNATiv profiling in Jurkat cells) EUB0000090b HIPK2; format: cell-based; details: at 1 µM
[9] = biological target: Casein kinase I isoform epsilon (Homo sapiens, UniProt P49674); experiment: Selectivity interaction (KinomeScan (DiscoverX)) EUB0000045b CSNK1E
Sequence of Casein kinase I isoform epsilon (P49674 whole entry, looked up, canonical isoform): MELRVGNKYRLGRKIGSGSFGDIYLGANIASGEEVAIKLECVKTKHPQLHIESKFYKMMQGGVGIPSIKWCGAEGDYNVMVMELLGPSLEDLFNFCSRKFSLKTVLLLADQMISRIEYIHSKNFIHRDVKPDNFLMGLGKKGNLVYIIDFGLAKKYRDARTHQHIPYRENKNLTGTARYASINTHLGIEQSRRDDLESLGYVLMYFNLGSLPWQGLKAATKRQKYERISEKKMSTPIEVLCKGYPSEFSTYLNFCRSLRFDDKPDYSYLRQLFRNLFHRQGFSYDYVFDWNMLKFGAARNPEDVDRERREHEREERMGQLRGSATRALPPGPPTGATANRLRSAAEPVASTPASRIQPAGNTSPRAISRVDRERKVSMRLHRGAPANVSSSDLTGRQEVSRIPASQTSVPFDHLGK

[10] = biological target: Serine/threonine-protein kinase PAK 1 (Homo sapiens) (UniProt Q13153); experiment: Selectivity interaction (KinomeScan (DiscoverX)) EUB0001619a PAK1; details: at 1 µM
[11] = biological target: T2, Interleukin-1 receptor-associated kinase 4 (Homo sapiens) (UniProt Q9NWZ3); experiment: Selectivity interaction (KinomeScan (DiscoverX)) EUB0000655a IRAK4; details: at 10 µM
T2 sequence (whole entry): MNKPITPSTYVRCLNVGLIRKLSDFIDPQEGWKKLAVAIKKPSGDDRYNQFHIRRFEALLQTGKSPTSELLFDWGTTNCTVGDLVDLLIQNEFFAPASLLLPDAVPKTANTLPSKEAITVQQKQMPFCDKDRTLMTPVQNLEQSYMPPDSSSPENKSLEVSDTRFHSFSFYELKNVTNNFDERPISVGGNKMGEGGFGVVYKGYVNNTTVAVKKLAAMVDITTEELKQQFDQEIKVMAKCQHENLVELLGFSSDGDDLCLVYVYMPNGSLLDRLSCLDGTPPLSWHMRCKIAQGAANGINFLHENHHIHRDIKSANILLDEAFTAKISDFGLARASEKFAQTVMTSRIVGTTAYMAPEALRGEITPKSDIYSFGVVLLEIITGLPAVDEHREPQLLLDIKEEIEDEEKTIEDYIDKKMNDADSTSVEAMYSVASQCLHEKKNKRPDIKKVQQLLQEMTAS

[12] = biological target: Ephrin type-A receptor 5 (Homo sapiens) (UniProt P54756); experiment: Selectivity interaction (KinomeScan (DiscoverX)) EUB0000655a EPHA5; details: at 10 µM
Sequence of Ephrin type-A receptor 5 (Homo sapiens) (P54756 whole entry): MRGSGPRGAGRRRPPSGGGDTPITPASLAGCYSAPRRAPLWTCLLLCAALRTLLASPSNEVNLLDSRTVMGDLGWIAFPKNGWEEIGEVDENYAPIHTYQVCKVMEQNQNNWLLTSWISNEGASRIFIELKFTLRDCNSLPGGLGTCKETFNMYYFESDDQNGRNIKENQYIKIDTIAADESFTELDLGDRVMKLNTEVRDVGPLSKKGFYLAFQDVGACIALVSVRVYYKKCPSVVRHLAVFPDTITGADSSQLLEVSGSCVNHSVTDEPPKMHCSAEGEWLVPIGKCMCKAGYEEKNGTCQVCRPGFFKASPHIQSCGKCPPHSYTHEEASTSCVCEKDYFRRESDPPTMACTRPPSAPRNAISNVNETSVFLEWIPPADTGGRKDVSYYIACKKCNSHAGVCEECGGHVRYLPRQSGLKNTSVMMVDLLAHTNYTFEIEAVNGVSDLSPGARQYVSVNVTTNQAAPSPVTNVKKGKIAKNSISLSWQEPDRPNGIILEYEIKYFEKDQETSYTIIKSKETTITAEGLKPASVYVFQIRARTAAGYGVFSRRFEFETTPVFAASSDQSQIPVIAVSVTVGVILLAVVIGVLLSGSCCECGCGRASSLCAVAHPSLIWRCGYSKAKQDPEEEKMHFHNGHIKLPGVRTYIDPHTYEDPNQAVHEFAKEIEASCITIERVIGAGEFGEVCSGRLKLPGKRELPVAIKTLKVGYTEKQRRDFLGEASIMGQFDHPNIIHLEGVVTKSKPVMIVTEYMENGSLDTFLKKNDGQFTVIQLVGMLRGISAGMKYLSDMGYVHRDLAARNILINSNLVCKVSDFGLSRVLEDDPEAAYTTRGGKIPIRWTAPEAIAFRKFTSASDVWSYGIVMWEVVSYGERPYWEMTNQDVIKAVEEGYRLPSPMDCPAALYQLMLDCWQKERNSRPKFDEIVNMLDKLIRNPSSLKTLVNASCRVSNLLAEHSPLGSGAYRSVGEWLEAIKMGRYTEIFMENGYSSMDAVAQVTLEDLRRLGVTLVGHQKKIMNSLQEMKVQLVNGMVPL

[13] = biological target: Mitogen-activated protein kinase kinase kinase kinase 5 (Homo sapiens) (UniProt Q9Y4K4); experiment: Selectivity interaction (Kinase panel (Z-LYTE Assay)) EUB0001632a MAP4K5; details: at 10 µM
[14] = biological target: CDK12/Cyclin K (Homo sapiens) (UniProt O75909+Q9NYV4); experiment: Selectivity interaction (ProQinase) EUB0000171b CDK12; format: protein-complex assay; details: at 1 µM
Sequence of CDK12/Cyclin K (Homo sapiens) (O75909 whole entry, looked up): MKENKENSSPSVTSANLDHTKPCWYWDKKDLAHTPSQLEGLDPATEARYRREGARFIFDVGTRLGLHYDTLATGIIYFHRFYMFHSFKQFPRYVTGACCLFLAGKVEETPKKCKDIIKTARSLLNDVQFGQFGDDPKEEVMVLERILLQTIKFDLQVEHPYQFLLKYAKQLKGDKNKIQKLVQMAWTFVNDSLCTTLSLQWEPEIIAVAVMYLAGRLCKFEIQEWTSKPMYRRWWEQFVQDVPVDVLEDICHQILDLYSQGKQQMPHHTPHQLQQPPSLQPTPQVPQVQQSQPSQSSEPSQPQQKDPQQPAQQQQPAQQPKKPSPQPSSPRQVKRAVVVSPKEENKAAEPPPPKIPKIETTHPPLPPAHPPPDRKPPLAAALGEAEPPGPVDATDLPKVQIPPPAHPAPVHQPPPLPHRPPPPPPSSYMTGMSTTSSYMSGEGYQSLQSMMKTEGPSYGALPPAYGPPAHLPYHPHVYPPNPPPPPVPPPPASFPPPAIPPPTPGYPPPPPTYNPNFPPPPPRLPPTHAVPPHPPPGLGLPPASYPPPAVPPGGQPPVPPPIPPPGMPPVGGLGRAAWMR
Sequence of CDK12/Cyclin K (Homo sapiens) (Q9NYV4 whole entry, looked up): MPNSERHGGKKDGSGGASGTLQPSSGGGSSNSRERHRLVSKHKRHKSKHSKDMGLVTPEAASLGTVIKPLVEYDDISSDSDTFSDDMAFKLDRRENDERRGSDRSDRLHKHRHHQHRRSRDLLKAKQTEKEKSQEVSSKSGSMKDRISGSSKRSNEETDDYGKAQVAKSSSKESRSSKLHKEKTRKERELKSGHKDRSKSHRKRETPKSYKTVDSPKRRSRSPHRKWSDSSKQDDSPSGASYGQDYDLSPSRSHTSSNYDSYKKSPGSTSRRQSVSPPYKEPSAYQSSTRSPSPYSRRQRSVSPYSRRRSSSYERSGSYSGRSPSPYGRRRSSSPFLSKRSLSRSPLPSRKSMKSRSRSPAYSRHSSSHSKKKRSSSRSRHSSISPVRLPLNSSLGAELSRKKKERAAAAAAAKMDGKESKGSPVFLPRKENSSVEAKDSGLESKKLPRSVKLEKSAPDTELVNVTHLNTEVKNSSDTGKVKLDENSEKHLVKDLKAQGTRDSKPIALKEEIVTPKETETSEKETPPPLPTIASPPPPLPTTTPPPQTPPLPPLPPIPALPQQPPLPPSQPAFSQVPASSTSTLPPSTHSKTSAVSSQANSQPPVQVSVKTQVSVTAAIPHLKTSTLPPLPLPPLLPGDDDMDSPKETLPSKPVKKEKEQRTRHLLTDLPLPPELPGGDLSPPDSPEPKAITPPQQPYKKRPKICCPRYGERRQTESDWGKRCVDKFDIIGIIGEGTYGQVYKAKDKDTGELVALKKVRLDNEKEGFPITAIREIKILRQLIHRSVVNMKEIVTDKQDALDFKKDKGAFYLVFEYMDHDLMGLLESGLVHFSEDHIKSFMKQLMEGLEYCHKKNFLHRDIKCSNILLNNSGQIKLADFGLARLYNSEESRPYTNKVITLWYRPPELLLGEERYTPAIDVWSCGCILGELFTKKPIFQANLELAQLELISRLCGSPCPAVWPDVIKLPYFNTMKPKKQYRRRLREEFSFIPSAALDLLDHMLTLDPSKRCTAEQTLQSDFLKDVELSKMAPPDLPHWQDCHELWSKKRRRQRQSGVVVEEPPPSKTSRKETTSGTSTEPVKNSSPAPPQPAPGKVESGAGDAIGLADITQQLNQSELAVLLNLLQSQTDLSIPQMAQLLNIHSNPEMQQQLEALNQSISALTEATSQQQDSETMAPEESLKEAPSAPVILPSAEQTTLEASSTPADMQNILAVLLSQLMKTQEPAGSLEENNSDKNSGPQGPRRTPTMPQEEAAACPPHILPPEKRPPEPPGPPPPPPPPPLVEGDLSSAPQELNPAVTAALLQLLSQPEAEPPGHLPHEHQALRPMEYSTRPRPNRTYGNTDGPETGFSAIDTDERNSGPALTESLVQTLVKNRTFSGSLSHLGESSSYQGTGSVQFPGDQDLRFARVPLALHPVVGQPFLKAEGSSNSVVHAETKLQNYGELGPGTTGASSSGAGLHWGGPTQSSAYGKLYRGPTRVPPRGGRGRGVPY

## COc1cc(Nc2nc(C)cc(-c3cnn4nc(OC)ccc34)n2)cc(C(F)(F)F)c1
[1]
  % of control: 82%
[2]
  % of control: 81%

## CCc1cc(Nc2nccc(-c3c(-c4ccc(OC)c(C(=O)Nc5c(F)cccc5F)c4)nc4ccccn34)n2)c(OC)cc1N1CCC(N2CCN(S(C)(=O)=O)CC2)CC1
[3]
  IC50: > 10 µM

## Cc1cc(CN)cc(C)c1-c1ncn(C)c1-c1cncn1C
[4]
  dTM: -0.53 K

## COCC(=O)NC/C=C/c1ccc2ncnc(Nc3ccc(Oc4ccc(C)nc4)c(C)c3)c2c1 [CP-724714]
[5]
  % of control: 73%
[6]
  % of control: 100%

## CN(C)C/C=C/C(=O)Nc1ccc(C(=O)N2CCCC(Nc3ncc(Cl)c(-c4c[nH]c5ccccc45)n3)C2)cc1 (stereo not given)
[7]
  % of control: 94%
[8]
  % of control: 70%

## C=CC(=O)Nc1cc(-n2c(=O)ccc3cnc4ccc(-c5ccc(NS(C)(=O)=O)cc5)cc4c32)ccc1C
[9]; at 1 µM
  % of control: 100%
[9]; at 10 µM
  % of control: 100%

## N#Cc1cccc(-c2c[nH]c3ncnc(N4CCOCC4)c23)c1
[10]
  % of control: 100%

## CN(C)CCOc1ccc(-c2nc(-c3ccncc3)c(-c3ccc4c(c3)CC/C4=N\O)[nH]2)cc1
[11]
  % of control: 91%
[12]
  % of control: 99%

## Cn1cc(-n2cnc3c(NCc4nc5cc(Cl)c(Cl)cc5[nH]4)nc(N4CCOCC4)nc32)cn1
[13]
  % of control: 3.28%

## C=CC(=O)Nc1cccc(C(=O)Nc2ccc(Nc3cc(-c4[nH]c(SC)nc4C)ccn3)cc2)c1
[14]
  % of control: 82%
